Laboratory results published in US12049518B2, “Pharmacokinetics and cholecystokinin-2 receptor (CCK2R) targeting for diagnosis and therapy” (Medizinische Universitat Innsbruck, priority 2017, dated 2024).
Like-named read-outs stand apart in the source and are kept apart here. Blank lines part the entries; values can stand above or below the molecule they belong to. Where a SMILES comes first, the peptide text is derived from it. [ ]: non-standard residue; d: D form. The star is where a group is joined. DOTA = O=C(O)CN1CCN(CC(=O)O)CCN(CC(=O)*)CCN(CC(=O)O)CC1; 1Nal = N[C@@H](Cc1cccc2ccccc12)C(=O)O; NMeNle = CCCC[C@H](NC)C(=O)O

Legend:
human CCK2R = target: T1, human CCK2R (Homo sapiens, UniProt P32239); test: CCK2R competition binding assay against [125I]Tyr12-gastrin-I on A431-CCK2R cells
T1 construct: expressed in transfected cells; host or cells: A431 human epidermoid carcinoma cells (A431-CCK2R), plasmid pCR3.1, provided by Dr. Luigi Aloj
T1 sequence (P32239 1-447): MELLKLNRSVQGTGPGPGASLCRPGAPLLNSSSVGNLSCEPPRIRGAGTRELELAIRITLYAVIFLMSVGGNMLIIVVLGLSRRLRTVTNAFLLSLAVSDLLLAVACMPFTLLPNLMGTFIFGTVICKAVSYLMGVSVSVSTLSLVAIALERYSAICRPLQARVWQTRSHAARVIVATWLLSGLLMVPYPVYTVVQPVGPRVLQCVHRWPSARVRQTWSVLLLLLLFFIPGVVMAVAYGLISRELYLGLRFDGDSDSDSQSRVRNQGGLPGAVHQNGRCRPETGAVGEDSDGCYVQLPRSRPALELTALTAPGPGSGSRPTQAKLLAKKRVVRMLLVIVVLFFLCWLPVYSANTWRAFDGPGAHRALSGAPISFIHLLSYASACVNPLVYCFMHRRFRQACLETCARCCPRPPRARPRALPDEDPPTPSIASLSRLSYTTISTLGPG
Protocol: Affinity for CCK2R was studied in A431 human epidermoid carcinoma cells stably transfected with the plasmid pCR3.1 containing the full coding sequence for the human CCK2R (A431-CCK2R) kindly provided by Dr. Luigi Aloj (Aloj L et al., J Nucl Med 2004, 45: 485-494). […] Radioiodination of gastrin-1 was carried out using the chloramine-T method. Non-carrier-added [^125I-Tyr^12]gastrind was obtained by HPLC purification and stored in aliquots at −20° C. Binding assays were carried out in 96-well filter plates (MultiScreenHTS-FB, Merck Group, Darmstadt, Germany) pretreated with 10 mM TRIS/139 mM NaCl pH 7.4 (2×250 μl). For the assay a number of 200,000-400,000 A431-CCK2R cells per well was prepared in 35 mM HEPES buffer pH 7.4 containing 10 mM MgCl2, 14 μM bacitracin and 0.5% BSA (a hypotonic solution disturbing the integrity of the cell membranes). The cells were incubated in triplicates with increasing concentrations of the peptidomimetics (0.0003 to 10,000 nM, for example 0.001 to 1000 nM) and [^125I-Tyr^12]gastrin-I (20,000-60,000 cpm) for 1 h at RT. Incubation was interrupted by filtration of the medium and rapid rinsing with ice-cold 10 mM TRIS/139 mM NaCl pH 7.4 (2×200 μl) and the filters were counted in the gamma-counter. Half maximal inhibitory concentration (IC50) values were calculated following nonlinear regression with Origin software (Microcal Origin 6.1, Northampton, MA) and a representative assay was chosen for comparison.

[1] = biodistribution: uptake in normal tissues; assay type: in vivo, athymic BALB/c nude mice
Protocol: Biodistribution studies evaluating the tumour uptake of the radiolabelled inventive CCK2R targeting peptide analogues were performed in 7-week-old female athymic BALB/c nude mice (Charles River, Sulzfeld, Germany). All animal experiments were conducted in compliance with the Austrian animal protection laws and with the approval of the Austrian Ministry of Science. For the induction of tumour xenografts, A431-CCK2R and A431-mock cells were injected subcutaneously in the right and left flank respectively (2 million cells in 200 μl). When tumours had reached a size of approximately 0.2 ml biodistribution studies were carried out. Groups of 4 mice were injected intravenously via a lateral tail vein with the peptidomimetics of the present invention, labelled with ^111In (approximately 0.2 MBq and 0.02 nmol peptidomimetic), with ^68Ga (approximately 0.8 MBq and 0.02-0.03 nmol peptidomimetic), with ^177Lu (approximately 0.5 MBq and 0.02 nmol peptidomimetic) or with ^99mTc (approximately 0.3 MBq and 0.02 nmol peptidomimetic). After a time period of 1 or 4 h post-injection (p.i.) the animals were sacrificed by cervical dislocation, tumours and other tissues (blood, lung, heart, muscle, bone, spleen, intestine, liver, kidneys, stomach, pancreas) were removed, weighed, and their radioactivity measured in the gamma counter. Results were expressed as percentage of injected activity per gram tissue (% IA/g) and tumour to organ activity ratios were calculated from the activity measured in the dissected tissues. In FIG. 4 the results of the biodistribution studies at 4 h p.i. are summarized for the ^111In-labelled peptidomimetics of the present invention in comparison with ^111In-DOTA-MGS1 and ^111In-DOTA-MGS4 (Klingler M et al., Eur J Nucl Med Mol Imaging 2017, 44: S228). In FIG. 5 the results for the model peptidomimetics of the present invention, DOTA-MGS5 and HYNIC-MGS5, radiolabelled with different radiometals are shown for different time points of 1 or 4 h p.i. […] The uptake in A431-mock tumour xenografts with values <1% IA/g was very low confirming the high receptor-specific tumour uptake. […] A combination of high stability and increased protein binding in vivo seems therefore to result in an optimal protection of the radioligand against enzymatic degradation in blood allowing reaching an extremely high tumour uptake.

serum proteins = test: protein binding to serum proteins (Sephadex G-50 size-exclusion chromatography); assay type: in vitro ADME; details: 37° C.
Protocol: Additionally, protein binding to serum proteins was investigated. For this purpose the ^111In-labelled peptidomimetics were incubated in duplicates in fresh human serum at 37° C. (500 pmol/mL) and analyzed after 4 and 24 h by Sephadex G-50 size-exclusion chromatography (GE Healthcare Illustra, Little Chalfont, UK). The percentage of protein binding was determined by measuring the column and the eluate in a 2480 Wizard 2 automatic gamma-counter (Perkin Elmer Life Sciences and Analytical Sciences, Turku, F).

[2] = stability in vivo (radio-HPLC of blood sample); details: BALB/c mice, i.v., 10 min p.i.
Protocol: To further characterise the stability of the radiolabelled peptidomimetics in vivo, metabolic studies were carried out in 5-6-week-old female BALB/c mice (Charles River, Sulzfeld, Germany) injected intravenously with the ^111In- and […] peptidomimetics. All animal experiments were conducted in compliance with the Austrian animal protection laws and with the approval of the Austrian Ministry of Science. To allow monitoring of the metabolites by radio-HPLC, mice were injected with a higher amount of radioactivity (5-15 MBq ^111In and 20-40 MBq ^177Lu, corresponding to 1-2 nmol total peptide) through a lateral tail vein and euthanized by cervical dislocation 10 or 30 min post injection (p.i.). A sample of blood was collected and the degradation was assessed by radio-HPLC.

[3] = displacement of [125I]Tyr12-gastrin-I, A431-CCK2R cells, 1 h at RT, read-out: IC50
[4] = CCK2R expressing organ, 1 or 4 h p.i.

IC50 (human CCK2R; [3]): 1.6 ± 0.4 nM
SMILES: CCCC[C@@H](C(=O)N[C@@H](CC(=O)O)C(=O)N[C@@H](Cc1ccc2ccccc2c1)C(N)=O)N(C)C(=O)[C@H](Cc1c[nH]c2ccccc12)NC(=O)CNC(=O)[C@H](Cc1ccc(O)cc1)NC(=O)[C@H](C)NC(=O)[C@@H](CCC(=O)O)NC(=O)CN1CCN(CC(=O)O)CCN(CC(=O)O)CCN(CC(=O)O)CC1 [DOTA-MGS5-2, DOTA-DGlu-Ala-Tyr-Gly-Trp-(N-Me)Nle-Asp-2Nal-NH2]

IC50 (human CCK2R; [3]): 1.6 ± 0.2 nM
SMILES: CCCC[C@@H](C(=O)N[C@@H](CC(=O)O)C(=O)N[C@@H](Cc1cccc2ccccc12)C(N)=O)N(C)C(=O)[C@H](Cc1c[nH]c2ccccc12)NC(=O)CNC(=O)[C@H](Cc1ccc(O)cc1)NC(=O)[C@@H]1CCCN1C(=O)[C@@H](CCC(=O)O)NC(=O)CN1CCN(CC(=O)O)CCN(CC(=O)O)CCN(CC(=O)O)CC1 [DOTA-MGS8, DOTA-DGlu-Pro-Tyr-Gly-Trp-(N-Me)Nle-Asp-1Nal-NH2] ({DOTA}-[dE]PYGW[NMeNle]D[1Nal]-NH2)

IC50 (human CCK2R; [3]): 0.9 ± 0.2 nM
SMILES: CCCC[C@@H](C(=O)N[C@@H](CC(=O)O)C(=O)N[C@@H](Cc1cccc2ccccc12)C(N)=O)N(C)C(=O)[C@H](Cc1c[nH]c2ccccc12)NC(=O)CNC(=O)[C@@H]1CCCN1C(=O)[C@H](Cc1ccc(O)cc1)NC(=O)[C@@H](CCC(=O)O)NC(=O)CN1CCN(CC(=O)O)CCN(CC(=O)O)CCN(CC(=O)O)CC1 [DOTA-MGS10, DOTA-DGlu-Tyr-Pro-Gly-Trp-(N-Me)Nle-Asp-1Nal-NH2] ({DOTA}-[dE]YPGW[NMeNle]D[1Nal]-NH2)

SMILES: CSCC[C@H](NC(=O)[C@H](Cc1c[nH]c2ccccc12)NC(=O)CNC(=O)[C@H](Cc1ccc(O)cc1)NC(=O)[C@H](C)NC(=O)[C@@H](CCC(=O)O)NC(=O)[C@@H](CCC(=O)O)NC(=O)[C@@H](CCC(=O)O)NC(=O)[C@@H](CCC(=O)O)NC(=O)[C@@H](CCC(=O)O)NC(=O)[C@@H](CCC(=O)O)NC(=O)CN1CCN(CC(=O)O)CCN(CC(=O)O)CCN(CC(=O)O)CC1)C(=O)N[C@@H](CC(=O)O)C(=O)N[C@@H](Cc1ccccc1)C(N)=O [PP-F11, reference compound]
IC50 (human CCK2R): 0.4 ± 0.1 nM

tissue uptake ([1]; female, athymic BALB/c nude, mouse, blood, lung and heart, iv, total radioactivity, 1 or 4 h p.i., read-out: unspecific tissue uptake in blood, lung and heart): 1 to 2 %ID/g
SMILES: CCCC[C@@H](C(=O)N[C@@H](CC(=O)O)C(=O)N[C@@H](Cc1cccc2ccccc12)C(N)=O)N(C)C(=O)[C@H](Cc1c[nH]c2ccccc12)NC(=O)CNC(=O)[C@H](Cc1ccc(O)cc1)NC(=O)[C@H](C)NC(=O)[C@@H](CCC(=O)O)NC(=O)CN1CCN(CC(=O)O)CCN(CC(=O)O)CCN(CC(=O)O)CC1 [^68Ga-DOTA-MGS5, metal not drawn]

kidney uptake ([1]; 1 or 4 h p.i. (111In-labelled series: 4 h p.i.)): 8 % IA/g
uptake in pancreas [1, 4]: 7 % IA/g
uptake in stomach [1, 4]: 13 % IA/g
SMILES: CCCC[C@@H](C(=O)N[C@@H](CC(=O)O)C(=O)N[C@@H](Cc1cccc2ccccc12)C(N)=O)N(C)C(=O)[C@H](Cc1c[nH]c2ccccc12)NC(=O)CNC(=O)[C@H](Cc1ccc(O)cc1)NC(=O)[C@H](C)NC(=O)[C@@H](CCC(=O)O)NC(=O)c1ccc(NN)nc1 [^99mTc-HYNIC-MGS5, metal not drawn]

fraction unbound at 4 h, 500 pmol/mL (serum proteins; fresh human serum, 4 h, read-out: Percentage of radioligand bound to serum proteins after 4 h incubation (converted)): 0.734
fraction unbound at 24 h, 500 pmol/mL (serum proteins; fresh human serum, 24 h, read-out: Percentage of radioligand bound to serum proteins after 24 h incubation (converted)): 0.722
Percentage of radioligand bound to serum proteins after 24 h incubation (serum proteins; human serum, 24 h): ~30%
tissue uptake at 4 h ([1]; female, athymic BALB/c nude, mouse, intestine and liver, iv, 0.02 nmol peptidomimetic, total radioactivity, 4 h p.i.): ~2 %ID/g
tissue uptake ([1]; female, athymic BALB/c nude, mouse, kidneys, iv, total radioactivity, 1 or 4 h p.i. (111In-labelled series: 4 h p.i.), read-out: kidney uptake): 20.7 ± 4.4 %ID/g
intact radioligand present in the blood at 10 min p.i. [2]: 93.9±1.2%
SMILES: CCCC[C@@H](C(=O)N[C@@H](CC(=O)O)C(=O)N[C@@H](Cc1cccc2ccccc12)C(N)=O)N(C)C(=O)[C@H](Cc1c[nH]c2ccccc12)NC(=O)CNC(=O)[C@H](Cc1ccc(O)cc1)NC(=O)[C@H](C)NC(=O)[C@@H](CCCCN)NC(=O)CN1CCN(CC(=O)O)CCN(CC(=O)O)CCN(CC(=O)O)CC1 [^111In-DOTA-MGS9, metal not drawn] ({DOTA}-[dK]AYGW[NMeNle]D[1Nal]-NH2)
